The species named for this assay is Cavia porcellus. The assay is described as follows: Effective dose for relaxation of guinea pig taenia coli strips. It counts as functional.

ED60 data for three molecules are collected here from ChEMBL document CHEMBL1124496, “Darmstoff analogues. 3. Actions of choline esters of acetal phosphatidic acids on visceral smooth muscle” (1989).

SMILES strings stand for the structures.

`CCCCC/C=C/C/C=C/CCCCCCCC1OCC(COP(=O)([O-])OCC[N+](C)(C)C)O1` (stereo not drawn): the ED60 was found to be 50 µM.

On to `CCCCCCCCCCCCCCCC1OCC(COP(=O)([O-])OCC[N+](C)(C)C)O1` (stereo not drawn), for which the ED60 was 57 µM.

Take `CCCCCCCC/C=C/CCCCCCCC1OCC(COP(=O)([O-])OCC[N+](C)(C)C)O1` (cis isomer): the ED60 was 200 µM.
